Assay results as given in ChEMBL document CHEMBL6114982, “Structural optimization and characterization of highly potent and selective STAT3 inhibitors for the treatment of triple negative breast cancer” (Eur J Med Chem, 2025).
Activity calls are given as the source filed them. No cut-off for these calls is given here.

Columns and labels:
MDA-MB-231 [1] = experiment: Downregulation of STAT3 phosphorylation level in human MDA-MB-231 cells preincubated for 48 hrs followed by IL-6 addition and measured after 2 hrs by Western blot analysis; format: functional, cell-based; conditions: dose 0.05-0.5 µM, time 50.0 hrs
MDA-MB-231 [2] = experiment: Antiproliferative activity against human MDA-MB-231 cells assessed as inhibition of cell growth incubated for 72 hrs by SRB method; format: functional, cell-based; conditions: MDA-MB-231, 72 h
[3] = molecular target: T1, Signal transducer and activator of transcription 3 (Homo sapiens, UniProt P40763); experiment: Inhibition of STAT3 phosphorylation at Tyr705 residue in human MDA-MB-231 cells at 0.1 uM by Western blot analysis; format: cell-based; conditions: time 8-48 hrs
[4] = molecular target: T1, Signal transducer and activator of transcription 3; experiment: Inhibition of STAT3 phosphorylation at Tyr705 residue in human BT-549 cells at 0.1 uM by Western blot analysis; format: cell-based; conditions: time 8-48 hrs
MDA-MB-231 [5] = experiment: Effect on STAT3 expression in human MDA-MB-231 cells at 0.1 microM measured after 8 to 48 hrs by Western blot analysis; format: functional, cell-based; conditions: time 8-48 hrs
MDA-MB-231 [6] = experiment: Downregulation of Bcl-2 level in human MDA-MB-231 cells measured after 48 hrs by Western blot analysis; format: functional, cell-based; conditions: dose 0.05-0.5 µM
MDA-MB-231 [7] = experiment: Downregulation of Bcl-xl level in human MDA-MB-231 cells measured after 48 hrs by Western blot analysis; format: functional, cell-based; conditions: dose 0.05-0.5 µM
BT-549 [8] = experiment: Downregulation of cyclin D1 level in human BT-549 cells measured after 48 hrs by Western blot analysis; format: functional, cell-based; conditions: dose 0.05-0.5 µM
BT-549 [9] = experiment: Downregulation of Bcl-xl level in human BT-549 cells measured after 48 hrs by Western blot analysis; format: functional, cell-based; conditions: dose 0.05-0.5 µM
MDA-MB-231 [10] = experiment: Downregulation of CD44 expression in human MDA-MB-231 cells by Western blot analysis; format: functional, cell-based
[11] = molecular target: Tyrosine-protein kinase JAK1 (Homo sapiens) (UniProt P23458); experiment: Inhibition of JAK1 (unknown origin) at upto 10 uM
[12] = molecular target: Epidermal growth factor receptor (Homo sapiens) (UniProt P00533); experiment: Inhibition of EGFR (unknown origin) at upto 10 uM
Homo sapiens = species: Homo sapiens; experiment: Inhibition of SRC phosphorylation (unknown origin) at […] residue at upto 10 uM
MDA-MB-231 [13] = experiment: Effect on JAK1 phosphorylation level in human MDA-MB-231 cells at 0.05 to 0.5 uM measured after 48 hrs by Western blot analysis; format: functional, cell-based; conditions: dose 0.05-0.5 µM
MDA-MB-231 [14] = experiment: Effect on STAT1 phosphorylation level in human MDA-MB-231 cells at 0.05 to 0.5 uM measured after 48 hrs by Western blot analysis; format: functional, cell-based; conditions: dose 0.05-0.5 µM
BT-549 [15] = experiment: Effect on JAK1 phosphorylation level in human BT-549 cells at 0.05 to 0.5 uM measured after 48 hrs by Western blot analysis; format: functional, cell-based; conditions: dose 0.05-0.5 µM
BT-549 [16] = experiment: Effect on STAT1 phosphorylation level in human BT-549 cells at 0.05 to 0.5 uM measured after 48 hrs by Western blot analysis; format: functional, cell-based; conditions: dose 0.05-0.5 µM
[17] = molecular target: T1, Signal transducer and activator of transcription 3; experiment: Inhibition of STAT3 nuclear translocation in human BT-549 cells assessed as decrease in p-STAT3 at Tyr705 residue at 0.05 to 0.5 uM preincubated for 48 hrs followed by IL-6 addition and measured after 2 hrs by Immunofluorescence analysis; format: cell-based; conditions: dose 0.05-0.5 µM, time 50.0 hrs
BT-549 [18] = experiment: Inhibition of colony formation in human BT-549 cells measured after 14 days by crystal violet staining based analysis; format: functional, cell-based; conditions: dose 0.1-0.5 µM, time 14.0 day
MDA-MB-231 [19] = experiment: Inhibition of colony formation in human MDA-MB-231 cells at low concentration measured after 14 days by crystal violet staining based analysis; format: functional, cell-based; conditions: time 14.0 day
BT-549 [20] = experiment: Inhibition of colony formation in human BT-549 cells at low concentration measured after 14 days by crystal violet staining based analysis; format: functional, cell-based; conditions: time 14.0 day
MDA-MB-231 [21] = experiment: Inhibition of colony formation in human MDA-MB-231 cells measured after 14 days by soft agar plate cloning assay; format: functional, cell-based; conditions: time 14.0 day
BT-549 [22] = experiment: Inhibition of cell migration in human BT-549 cells assessed as reduction in wound closure proportion at 0.05 to 0.5 uM incubated for 24 hrs by inverted microscopic analysis; format: functional, cell-based; conditions: dose 0.05-0.5 µM
MDA-MB-231 [23] = experiment: Inhibition of cell invasion in human MDA-MB-231 cells assessed as decrease in number of invaded cells incubated for 24 hrs by crystal violet staining based inverted microscopic analysis; format: functional; conditions: dose 0.05-0.5 µM
BT-549 [24] = experiment: Inhibition of cell invasion in human BT-549 cells assessed as decrease in number of invaded cells incubated for 24 hrs by crystal violet staining based inverted microscopic analysis; format: functional; conditions: dose 0.05-0.5 µM
MDA-MB-231 [25] = experiment: Induction of apoptosis in human MDA-MB-231 cells assessed as late apoptotic at 0.1 uM incubated for 48 hrs by Annexin V and PI staining based flow cytometry analysis (reference value: 2.71%); format: functional
MDA-MB-231 [26] = experiment: Induction of apoptosis in human MDA-MB-231 cells assessed as late apoptotic at 0.5 uM incubated for 48 hrs by Annexin V and PI staining based flow cytometry analysis (reference value: 2.71%); format: functional
MDA-MB-231 [27] = experiment: Antitumor activity against human MDA-MB-231 cells xenografted in female nude BALB/c mouse model assessed as reduction in tumor volume at 10 mg/kg, ip administered every other day for 30 days (reference value: 1522.98 millimeter); format: functional; conditions: time 30 day
MDA-MB-231 [28] = experiment: Antitumor activity against human MDA-MB-231 cells xenografted in female nude BALB/c mouse model assessed as tumor growth inhibition at 10 mg/kg, ip administered every other day for 30 days relative to control; format: functional; conditions: MDA-MB-231, 720 h, time 30 day, read-out: TGI
[29] = Half life in female BALB/c nude mouse administered as iv dose; format: ADME, organism-based; conditions: in vivo
[30] = Toxicity in female BALB/c nude mouse assessed as effect on heart at 10 to 20 mg/kg, iv measured after 30 days by H and E staining based analysis; format: organism-based; conditions: in vivo, 720 h, dose 10-20 mg/kg, time 30 day
[31] = Toxicity in female BALB/c nude mouse assessed as effect on spleen at 10 to 20 mg/kg, iv measured after 30 days by H and E staining based analysis; format: organism-based; conditions: in vivo, 720 h, dose 10-20 mg/kg, time 30 day
[32] = Toxicity in female BALB/c nude mouse assessed as effect on lung at 10 to 20 mg/kg, iv measured after 30 days by H and E staining based analysis; format: organism-based; conditions: in vivo, 720 h, dose 10-20 mg/kg, time 30 day
[33] = Toxicity in female BALB/c nude mouse assessed as effect on kidney at 10 to 20 mg/kg, iv measured after 30 days by H and E staining based analysis; format: organism-based; conditions: in vivo, 720 h, dose 10-20 mg/kg, time 30 day
[34] = Toxicity in female BALB/c nude mouse assessed as drug tolerance at 10 to 20 mg/kg, iv measured after 30 days; format: organism-based; conditions: in vivo, 720 h, dose 10-20 mg/kg, time 30 day
[35] = molecular target: T1, Signal transducer and activator of transcription 3; experiment: Competitive binding affinity to STAT3 SH2 domain (unknown origin) expressed in HEK293T cells assessed as decrease in fluorescence intensity by dual luciferase analysis; format: cell-based; conditions: dose 0.05-0.5 µM
[36] = molecular target: T1, Signal transducer and activator of transcription 3; experiment: Inhibition of STAT3 phosphorylation in human MDA-MB-231 cells assessed as upregulation of HMOX1 expression level; format: cell-based
[37] = molecular target: T1, Signal transducer and activator of transcription 3; experiment: Inhibition of STAT3 phosphorylation in human MDA-MB-231 cells assessed as downregulation of KRT1 expression level; format: cell-based
[38] = molecular target: T1, Signal transducer and activator of transcription 3; experiment: Inhibition of STAT3 phosphorylation in human MDA-MB-231 cells assessed as downregulation of F5 level; format: cell-based
[39] = molecular target: T1, Signal transducer and activator of transcription 3; experiment: Inhibition of STAT3 in human MDA-MB-231 cells assessed as upregulation of MCL1 level; format: cell-based

T1 sequence (P40763 whole entry): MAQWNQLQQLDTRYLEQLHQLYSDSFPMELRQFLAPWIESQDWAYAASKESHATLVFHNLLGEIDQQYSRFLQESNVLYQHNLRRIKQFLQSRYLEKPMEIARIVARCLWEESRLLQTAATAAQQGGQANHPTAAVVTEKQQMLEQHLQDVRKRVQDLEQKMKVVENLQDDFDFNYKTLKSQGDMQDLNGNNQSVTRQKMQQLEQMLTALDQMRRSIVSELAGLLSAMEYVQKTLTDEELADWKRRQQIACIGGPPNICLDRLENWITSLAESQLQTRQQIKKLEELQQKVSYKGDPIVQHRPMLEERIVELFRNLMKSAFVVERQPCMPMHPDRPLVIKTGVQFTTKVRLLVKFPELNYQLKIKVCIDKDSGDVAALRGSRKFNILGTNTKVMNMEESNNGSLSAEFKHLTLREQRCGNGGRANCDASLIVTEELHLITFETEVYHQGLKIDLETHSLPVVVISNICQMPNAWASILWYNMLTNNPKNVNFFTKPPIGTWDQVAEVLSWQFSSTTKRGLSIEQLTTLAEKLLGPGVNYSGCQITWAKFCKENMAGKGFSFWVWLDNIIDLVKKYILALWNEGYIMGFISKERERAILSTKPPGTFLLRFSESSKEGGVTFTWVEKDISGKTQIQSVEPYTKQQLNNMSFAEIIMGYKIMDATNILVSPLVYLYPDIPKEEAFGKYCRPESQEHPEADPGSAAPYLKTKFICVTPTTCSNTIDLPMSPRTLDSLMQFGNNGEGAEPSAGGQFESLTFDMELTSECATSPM
Tyrosine-protein kinase JAK1 (Homo sapiens), sequence (P23458 whole entry): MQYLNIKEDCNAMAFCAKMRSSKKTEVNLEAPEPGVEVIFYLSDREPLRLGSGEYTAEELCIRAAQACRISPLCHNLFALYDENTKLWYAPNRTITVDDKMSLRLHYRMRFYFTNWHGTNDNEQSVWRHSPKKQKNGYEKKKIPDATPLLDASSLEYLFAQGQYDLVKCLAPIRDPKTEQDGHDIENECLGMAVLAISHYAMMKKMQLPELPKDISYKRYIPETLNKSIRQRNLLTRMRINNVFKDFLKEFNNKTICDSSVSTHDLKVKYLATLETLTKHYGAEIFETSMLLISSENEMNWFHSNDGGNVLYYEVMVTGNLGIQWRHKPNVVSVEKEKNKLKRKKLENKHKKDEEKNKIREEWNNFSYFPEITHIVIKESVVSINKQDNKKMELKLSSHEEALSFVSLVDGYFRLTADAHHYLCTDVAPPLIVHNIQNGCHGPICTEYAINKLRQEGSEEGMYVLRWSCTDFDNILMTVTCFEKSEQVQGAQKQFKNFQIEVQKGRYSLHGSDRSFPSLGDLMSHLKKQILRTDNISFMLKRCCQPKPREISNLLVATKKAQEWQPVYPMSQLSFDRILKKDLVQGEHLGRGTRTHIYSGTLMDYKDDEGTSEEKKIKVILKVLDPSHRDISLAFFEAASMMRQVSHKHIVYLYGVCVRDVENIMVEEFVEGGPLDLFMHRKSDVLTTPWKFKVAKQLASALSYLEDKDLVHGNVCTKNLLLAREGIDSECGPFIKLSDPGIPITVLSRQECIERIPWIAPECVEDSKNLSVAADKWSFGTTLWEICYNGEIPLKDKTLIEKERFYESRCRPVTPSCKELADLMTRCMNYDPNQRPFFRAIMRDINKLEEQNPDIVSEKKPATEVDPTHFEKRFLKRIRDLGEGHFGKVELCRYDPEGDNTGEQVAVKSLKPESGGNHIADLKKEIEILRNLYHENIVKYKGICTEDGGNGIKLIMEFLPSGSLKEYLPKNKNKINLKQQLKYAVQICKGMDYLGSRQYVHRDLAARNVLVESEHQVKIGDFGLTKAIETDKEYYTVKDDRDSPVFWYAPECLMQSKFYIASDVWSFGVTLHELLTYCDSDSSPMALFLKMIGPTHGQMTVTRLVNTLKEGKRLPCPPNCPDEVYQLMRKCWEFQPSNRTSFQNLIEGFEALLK
Epidermal growth factor receptor (Homo sapiens), sequence (P00533 whole entry): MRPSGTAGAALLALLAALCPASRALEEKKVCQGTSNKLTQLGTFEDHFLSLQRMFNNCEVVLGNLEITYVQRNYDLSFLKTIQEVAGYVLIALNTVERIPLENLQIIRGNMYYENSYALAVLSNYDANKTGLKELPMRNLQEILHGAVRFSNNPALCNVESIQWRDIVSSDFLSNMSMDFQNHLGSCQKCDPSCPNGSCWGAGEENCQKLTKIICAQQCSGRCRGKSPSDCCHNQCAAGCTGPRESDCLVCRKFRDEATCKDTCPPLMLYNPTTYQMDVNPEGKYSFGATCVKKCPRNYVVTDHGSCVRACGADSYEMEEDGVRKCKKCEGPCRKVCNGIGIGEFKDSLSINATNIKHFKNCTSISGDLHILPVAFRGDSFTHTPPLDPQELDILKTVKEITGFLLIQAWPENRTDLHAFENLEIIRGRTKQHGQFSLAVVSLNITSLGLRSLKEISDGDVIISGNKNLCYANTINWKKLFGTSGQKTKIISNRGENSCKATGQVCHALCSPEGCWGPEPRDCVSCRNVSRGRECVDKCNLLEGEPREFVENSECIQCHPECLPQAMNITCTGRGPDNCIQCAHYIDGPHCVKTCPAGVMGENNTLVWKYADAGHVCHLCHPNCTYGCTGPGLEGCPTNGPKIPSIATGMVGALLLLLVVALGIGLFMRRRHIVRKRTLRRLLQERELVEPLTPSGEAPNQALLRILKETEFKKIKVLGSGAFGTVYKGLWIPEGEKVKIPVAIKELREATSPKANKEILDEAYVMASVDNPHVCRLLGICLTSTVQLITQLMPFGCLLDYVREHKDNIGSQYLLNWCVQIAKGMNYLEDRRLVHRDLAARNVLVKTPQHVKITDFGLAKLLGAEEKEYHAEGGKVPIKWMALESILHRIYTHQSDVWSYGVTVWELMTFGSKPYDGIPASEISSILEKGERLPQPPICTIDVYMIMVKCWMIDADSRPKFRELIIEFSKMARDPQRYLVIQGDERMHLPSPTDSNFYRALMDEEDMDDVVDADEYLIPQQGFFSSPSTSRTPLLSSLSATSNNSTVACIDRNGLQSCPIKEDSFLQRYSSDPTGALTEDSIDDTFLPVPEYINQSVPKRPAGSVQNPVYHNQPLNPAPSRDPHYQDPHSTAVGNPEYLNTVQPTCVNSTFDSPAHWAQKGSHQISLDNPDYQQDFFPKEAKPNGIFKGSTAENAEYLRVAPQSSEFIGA

IC50 (MDA-MB-231 [2]): 30 nM | inhibition [3]: Time-dependent-effect | inhibition [4]: Time-dependent-effect | inhibition [17]: Active | half-life [29]: 23 h | Activity [35]: Dose-dependent-effect | inhibition [36]: Active | inhibition [37]: Active | inhibition [38]: Active | inhibition [39]: Active
Compound: COc1cccc(C(=O)Nc2sc3c(c2C#N)CCN(C(=O)Nc2ccccc2OC)C3)c1
Activity (MDA-MB-231 [1]): Dose-dependent-effect | Activity (MDA-MB-231 [5]): Active; Compound Showed Little Impact On Stat3 Expression | Activity (MDA-MB-231 [6]): Dose-dependent-effect | Activity (MDA-MB-231 [7]): Dose-dependent-effect | Activity (BT-549 [8]): Dose-dependent-effect | Activity (BT-549 [9]): Dose-dependent-effect | Activity (MDA-MB-231 [10]): Active | inhibition [11]: Active; Compound Showed Little Inhibitory Effect | inhibition [12]: Active; Compound Showed Little Inhibitory Effect | inhibition (Homo sapiens): Active; Compound Showed Little Inhibitory Effect | Activity (MDA-MB-231 [13]): inactive | Activity (MDA-MB-231 [14]): inactive | Activity (BT-549 [15]): inactive | Activity (BT-549 [16]): inactive | inhibition (BT-549 [18]): Dose-dependent-effect | inhibition (MDA-MB-231 [19]): Active; Compound Showed Robust Inhibition Compared To Positive Control | inhibition (BT-549 [20]): Active; Compound Showed Robust Inhibition Compared To Positive Control | inhibition (MDA-MB-231 [21]): Active | inhibition (BT-549 [22]): Active | inhibition (MDA-MB-231 [23]): Dose-dependent-effect | inhibition (BT-549 [24]): Dose-dependent-effect | Activity (MDA-MB-231 [25]): 16.08% | Activity (MDA-MB-231 [26]): 19.18% | tumor volume (MDA-MB-231 [27]): 762 mm³ | inhibition in vivo at 10 mg/kg (MDA-MB-231 [28]): 51.5% | Activity [30]: Non-toxic | Activity [31]: Non-toxic | Activity [32]: Non-toxic | Activity [33]: Non-toxic | Activity [34]: Non-toxic
